# ChEMBL document CHEMBL4354878, “Structure-Based Bioisosterism Yields HIV-1 NNRTIs with Improved Drug-Resistance Profiles and Favorable Pharmacokinetic Properties” (J Med Chem, 2020)
# Key:
# [1] = target: Human immunodeficiency virus type 1 reverse transcriptase (Human immunodeficiency virus 1, UniProt Q72547, L100I); experiment: Inhibition of HIV1 RT L100I mutant in presence of reconstituted template and viral nucleotides [digoxigenin (DIG)-dUTP, biotin-dUTP and dTTP] incubated for 1 hr by ELISA method
# [2] = target: Human immunodeficiency virus type 1 reverse transcriptase (Human immunodeficiency virus 1, UniProt Q72547, E138K); experiment: Inhibition of HIV1 RT E138K mutant in presence of reconstituted template and viral nucleotides [digoxigenin (DIG)-dUTP, biotin-dUTP and dTTP] incubated for 1 hr by ELISA method
# [3] = target: Human immunodeficiency virus type 1 reverse transcriptase (Human immunodeficiency virus 1, UniProt Q72547, K103N/Y181C); experiment: Inhibition of HIV1 RT K103N/Y181C mutant in presence of reconstituted template and viral nucleotides [digoxigenin (DIG)-dUTP, biotin-dUTP and dTTP] incubated for 1 hr by ELISA method
# [4] = tested on: Human immunodeficiency virus 1; experiment: Antiviral activity against HIV1 3B infected in human MT4 cells grown under 30 passages in presence of 4-[[4-[[4-[4-[2-cyanovinyl]-2,6-dimethylphenoxy]thieno[3,2-d]pyrimidin-2-yl]amino]-1-piperidyl]methyl]benzenesulfonamide assessed as protection against virus-induced cytopathic effect incubated for 5 days by MTT assay; format: functional, organism-based; conditions: Human immunodeficiency virus 1, 3B, MT4, 120 h
# [5] = tested on: Human immunodeficiency virus 1; experiment: Antiviral activity against HIV1 3B infected in human MT4 cells grown under 30 passages in presence of 4-[[4-[[4-(4-cyano-2,6-dimethylphenoxy)thieno[3,2-d]pyrimidin-2-yl]amino]-1-piperidyl]methyl]benzenesulfonamide assessed as protection against virus-induced cytopathic effect incubated for 5 days by MTT assay; format: functional, organism-based; conditions: Human immunodeficiency virus 1, 3B, MT4, 120 h
# [6] = target: Human immunodeficiency virus type 1 reverse transcriptase (Human immunodeficiency virus 1, UniProt Q72547, Y188L); experiment: Inhibition of HIV1 RT Y188L mutant in presence of reconstituted template and viral nucleotides [digoxigenin (DIG)-dUTP, biotin-dUTP and dTTP] incubated for 1 hr by ELISA method
# [7] = target: Human immunodeficiency virus type 1 reverse transcriptase (Human immunodeficiency virus 1, UniProt Q72547, K103N); experiment: Inhibition of HIV1 RT K103N mutant in presence of reconstituted template and viral nucleotides [digoxigenin (DIG)-dUTP, biotin-dUTP and dTTP] incubated for 1 hr by ELISA method
# [8] = target: Human immunodeficiency virus type 1 reverse transcriptase (Human immunodeficiency virus 1, UniProt Q72547); experiment: Inhibition of HIV1 RT in presence of reconstituted template and viral nucleotides [digoxigenin (DIG)-dUTP, biotin-dUTP and dTTP] incubated for 1 hr by ELISA method
# [9] = tested on: Human immunodeficiency virus 1; experiment: Antiviral activity against HIV1 3B infected in human MT4 cells grown under 30 passages in presence of (E)-4-((4-((4-(4-(2-Cyanovinyl)-2,6-dimethylphenoxy)thieno[2,3- d]pyrimidin-2-yl)amino)piperidin-1-yl)methyl)benzenesulfonamide assessed as protection against virus-induced cytopathic effect incubated for 5 days by MTT assay; format: functional, organism-based; conditions: Human immunodeficiency virus 1, 3B, MT4, 120 h
# [10] = target: Human immunodeficiency virus type 1 reverse transcriptase (Human immunodeficiency virus 1, UniProt Q72547, Y181C); experiment: Inhibition of HIV1 RT Y181C mutant in presence of reconstituted template and viral nucleotides [digoxigenin (DIG)-dUTP, biotin-dUTP and dTTP] incubated for 1 hr by ELISA method
# [11] = tested on: Human immunodeficiency virus 1; experiment: Antiviral activity against HIV1 3B infected in human MT4 cells grown under 30 passages in absence of test compound assessed as protection against virus-induced cytopathic effect incubated for 5 days by MTT assay; format: functional, organism-based; conditions: Human immunodeficiency virus 1, 3B, MT4, 120 h
# [12] = tested on: Human immunodeficiency virus 1; format: functional, organism-based; conditions: Human immunodeficiency virus 1, MT4, 120 h
# [13] = tested on: Human immunodeficiency virus 1; experiment: Antiviral activity against HIV1 expressing RT L100I mutant infected in human MT4 cells assessed as protection against virus-induced cytopathic effect incubated for 5 days by MTT assay; format: functional, organism-based; conditions: Human immunodeficiency virus 1, MT4, 120 h
# [14] = tested on: Human immunodeficiency virus 1; experiment: Antiviral activity against HIV1 expressing RT Y181C mutant infected in human MT4 cells assessed as protection against virus-induced cytopathic effect incubated for 5 days by MTT assay; format: functional, organism-based; conditions: Human immunodeficiency virus 1, MT4, 120 h
# [15] = Selectivity index, ratio of CC50 for human MT4 cells to EC50 for antiviral activity against HIV1 3B infected in human MT4 cells
# [16] = tested on: Human immunodeficiency virus 1; experiment: Antiviral activity against HIV1 RES056 infected in human MT4 cells assessed as protection against virus-induced cytopathic effect incubated for 5 days by MTT assay; format: functional, organism-based; conditions: Human immunodeficiency virus 1, RES056, MT4, 120 h
# [17] = tested on: Human immunodeficiency virus 1; experiment: Antiviral activity against HIV1 expressing RT K103N mutant infected in human MT4 cells assessed as protection against virus-induced cytopathic effect incubated for 5 days by MTT assay; format: functional, organism-based; conditions: Human immunodeficiency virus 1, MT4, 120 h
# [18] = Selectivity index, ratio of CC50 for human MT4 cells to EC50 for antiviral activity against HIV1 RES056 infected in human MT4 cells
# [19] = tested on: Human immunodeficiency virus 1; experiment: Antiviral activity against HIV1 3B infected in human MT4 cells assessed as protection against virus-induced cytopathic effect incubated for 5 days by MTT assay; format: functional, organism-based; conditions: Human immunodeficiency virus 1, 3B, MT4, 120 h
# MT4 = experiment: Cytotoxicity against human MT4 cells assessed as reduction in cell viability incubated for 5 days by MTT assay; format: functional; conditions: MT4, 120 h
# [20] = tested on: Human immunodeficiency virus 1; experiment: Antiviral activity against HIV1 expressing RT Y188L mutant infected in human MT4 cells assessed as protection against virus-induced cytopathic effect incubated for 5 days by MTT assay; format: functional, organism-based; conditions: Human immunodeficiency virus 1, MT4, 120 h
# [21] = tested on: Human immunodeficiency virus 1; experiment: Antiviral activity against HIV1 expressing RT E138K mutant infected in human MT4 cells assessed as protection against virus-induced cytopathic effect incubated for 5 days by MTT assay; format: functional, organism-based; conditions: Human immunodeficiency virus 1, MT4, 120 h
# [22] = Toxicity in Kunming mouse assessed as induction of body weight changes at 2000 mg/kg, ig measured 2 hrs post dose and then measured every 48 hrs for 14 days; format: organism-based; conditions: in vivo, po
# [23] = Toxicity in Kunming mouse assessed as induction of toxic symptoms at 2000 mg/kg, ig measured 2 hrs post dose and then measured every 48 hrs for 14 days; format: organism-based; conditions: in vivo, po
# [24] = Toxicity in Kunming mouse assessed as induction of mortality at 2000 mg/kg, ig measured 2 hrs post dose and then measured every 48 hrs for 14 days; format: organism-based; conditions: in vivo, po
# [25] = Toxicity in Kunming mouse assessed as induction of abnormal behaviors at 2000 mg/kg, ig measured 2 hrs post dose and then measured every 48 hrs for 14 days; format: organism-based; conditions: in vivo, po
# [26] = Solubility of the compound in pH 7.0 buffer by HPLC analysis
# [27] = Solubility of the compound in pH 2.0 buffer by HPLC analysis
# [28] = Solubility of the compound in pH 7.4 buffer by HPLC analysis
# [29] = Aqueous solubility of the compound in pH 7 buffer; format: physicochemical
# [30] = tested on: Human immunodeficiency virus 1; experiment: Resistance index, ratio of EC50 for antiviral activity against HIV1 3B infected in human MT4 cells grown under 30 passages in presence of (E)-4-((4-((4-(4-(2-Cyanovinyl)-2,6-dimethylphenoxy)thieno[2,3- d]pyrimidin-2-yl)amino)piperidin-1-yl)methyl)benzenesulfonamide to EC50 for antiviral activity against HIV1 3B infected in human MT4 cells; format: functional
# [31] = tested on: Human immunodeficiency virus 1; experiment: Resistance index, ratio of EC50 for antiviral activity against HIV1 3B infected in human MT4 cells grown under 30 passages in presence of 4-[[4-[[4-(4-cyano-2,6-dimethylphenoxy)thieno[3,2-d]pyrimidin-2-yl]amino]-1-piperidyl]methyl]benzenesulfonamide to EC50 for antiviral activity against HIV1 3B infected in human MT4 cells; format: functional
# [32] = tested on: Human immunodeficiency virus 1; experiment: Resistance index, ratio of EC50 for antiviral activity against HIV1 3B infected in human MT4 cells grown under 30 passages in presence of 4-[[4-[[4-[4-[2-cyanovinyl]-2,6-dimethylphenoxy]thieno[3,2-d]pyrimidin-2-yl]amino]-1-piperidyl]methyl]benzenesulfonamide to EC50 for antiviral activity against HIV1 3B infected in human MT4 cells; format: functional
Structure (SMILES),EC50 [4] [nM],EC50 [5] [nM],EC50 [9] [nM],EC50 [11] [nM],EC50 [12] [nM],EC50 [13] [nM],EC50 [14] [nM],selectivity ratio [15],EC50 [16] [nM],EC50 [17] [nM],selectivity ratio [18],EC50 [19] [nM],CC50 (MT4) [nM],EC50 [20] [nM],EC50 [21] [nM],further results
Cc1cc(C#N)cc(C)c1Oc1nc(NC2CCN(Cc3ccc(S(N)(=O)=O)cc3)CC2)nc2ccsc12,> 36400,> 36400,> 36400,1.1,,,,,,,,,,,,IC50 [1]: 92 nM; IC50 [2]: 200 nM; IC50 [3]: 71 nM; IC50 [6]: 215 nM; IC50 [7]: 162 nM; IC50 [8]: 76 nM; IC50 [10]: 126 nM
Cc1cc(/C=C/C#N)cc(C)c1Oc1nc(NC2CCN(Cc3ccc(S(N)(=O)=O)cc3)CC2)nc2ccsc12,1220,860,> 5530,,,,,,,,,,,,,IC50 [1]: 99 nM; IC50 [2]: 350 nM; IC50 [3]: 107 nM; IC50 [6]: 301 nM; IC50 [7]: 191 nM; IC50 [8]: 101 nM; IC50 [10]: 149 nM
Cc1cc(/C=C/C#N)cc(C)c1Oc1nc(NC2CCN(Cc3ccc(F)cc3)CC2)nc2sccc12,,,,,127,30.4,36.3,279,150,22.6,39,19.7,5840,152,123,
Cc1cc(/C=C/C#N)cc(C)c1Oc1nc(NC2CCN(Cc3ccc(C(N)=O)cc3)CC2)nc2sccc12,,,,,15.1,6.11,12.8,597,66.9,4.99,53,5.92,3540,27.1,9.24,
CCOC(=O)c1ccc(CN2CCC(Nc3nc(Oc4c(C)cc(/C=C/C#N)cc4C)c4ccsc4n3)CC2)cc1,,,,,32.1,19.4,30.9,10500,153,12,728,10.6,111000,120,33.1,
Cc1cc(/C=C/C#N)cc(C)c1Oc1nc(NC2CCN(Cc3ccc(C#N)cc3)CC2)nc2sccc12,,,,,32.6,21.3,32.8,625,138,17.3,56,12.4,7740,117,36.3,
Cc1cc(/C=C/C#N)cc(C)c1Oc1nc(NC2CCN(Cc3ccc(S(N)(=O)=O)cc3)CC2)nc2sccc12,870,1780,3600,4.1,4.81,2.05,6.57,,6.45,2.34,,3.24,,7.59,6.7,Activity [22]: Non-Toxic; Activity [23]: Non-Toxic; IC50 [2]: 374 nM; Activity [24]: Non-Toxic; IC50 [3]: 120 nM; IC50 [6]: 452 nM; IC50 [7]: 222 nM; IC50 [8]: 114 nM; IC50 [10]: 141 nM; Activity [25]: Non-Toxic
Cc1cc(/C=C/C#N)cc(C)c1Oc1nc(NC2CCN(Cc3cccc(C(N)=O)c3)CC2)nc2sccc12,,,,,12.2,5.75,17.7,689,62,5.45,64,5.73,3950,39.5,18.4,
Cc1cc(C#N)cc(C)c1Oc1nc(Nc2ccc(C#N)cc2)nc(N)c1Br [ETRAVIRINE],370,530,1240,,,5.38,15.7,,,2.35,,,,20.5,,solubility [26]: < 1 µg/mL; solubility [27]: 127 µg/mL; solubility [28]: < 1 µg/mL; solubility [29]: < 1 µg/mL
Cc1ccnc2c1NC(=O)c1cccnc1N2C1CC1 [NEVIRAPINE],> 9510,> 9510,3760,87.9,,,,,,,,,,,,Ratio EC50 [30]: 43; Ratio EC50 [31]: >108; Ratio EC50 [32]: >108
Cc1cc(/C=C/C#N)cc(C)c1Nc1ccnc(Nc2ccc(C#N)cc2)n1 [RILPIVIRINE],60,90,> 3870,,,,,,,,,,,,,solubility [26]: < 1 µg/mL; solubility [27]: 103 µg/mL; solubility [28]: < 1 µg/mL
C[C@H](Cn1cnc2c(N)ncnc21)OCP(=O)(O)O [TENOFOVIR ANHYDROUS],3310,3760,2170,4140,,,,,,,,,,,,Ratio EC50 [30]: 0.5; Ratio EC50 [31]: 0.9; Ratio EC50 [32]: 0.8
Cc1cn([C@H]2C[C@H](N=[N+]=[N-])[C@@H](CO)O2)c(=O)[nH]c1=O [ZIDOVUDINE],4.9,5.1,1,12.7,,,,,,,,,,,,Ratio EC50 [30]: 0.1; Ratio EC50 [31]: 0.4; Ratio EC50 [32]: 0.4
